By Km is commonly meant the substrate concentration at which the rate is half of its maximum. In general, kcat refers to the maximal rate divided by the concentration of active sites. The term kcat/Km denotes the turnover number divided by the Michaelis constant. Broadly, the Ki is a measure of affinity in units of concentration, obtained from inhibition or displacement.

The subject of series [1] is CC(=O)OCC1=C(C(=O)O)N2C(=O)[C@@H](NC(=O)Cc3cccs3)[C@H]2SC1. Kind of series: Steady-state kinetic parameters of substrate hydrolysis by VIM-2. It counts as biochemical, P. aeruginosa. To be noted: other: VIM-2, pH 7.5, 25° C., average ± SD, triplicate. The text has this: (§1) Steady-state reactions were followed using an Agilent (Santa Clara, Calif.) 8453 Diode Array spectrophotometer as previously described. […] For ceftazidime and cefepime, a 0.2-cm path length quartz cuvette was used. A nonlinear leastsquares fit of the data (Henri Michaelis-Menten equation) using Enzfitter (Biosoft Corporation, Ferguson, Mo.) was employed to obtain the steady-state kinetic parameters Vmax and KM according to equation 1.
(§2) In this equation the observed first-order rate constant k=kcat/KM*[E].

Series [2] deals with O=C(Cc1cccs1)N[C@@H]1C(=O)N2C(C(=O)O)=C(/C=C/c3ccc([N+](=O)[O-])cc3[N+](=O)[O-])CS[C@H]12. Described as above. It counts as biochemical, P. aeruginosa. To be noted: other: VIM-2, pH 7.5, 25° C., average ± SD, triplicate.
Text: as §1, §2

Series [3] has as its system C[C@@H](O)[C@H]1C(=O)N2C(C(=O)O)=C(SCCN=CN)C[C@H]12. Described as above. To be noted: other: VIM-2, pH 7.5, 25° C., average ± SD, triplicate. It counts as biochemical, P. aeruginosa.
Text: as §1, §2

Another series deals with T1, VIM-2 (Pseudomonas aeruginosa, UniProt Q9K2N0).
T1 construct: made in house; host or cells: E. coli BL21(DE3) pLys, plasmid pET-24a(+)-blaVIM-2-S21
Kind of series: BTZ inhibition kinetics of nitrocefin hydrolysis by VIM-2. It counts as biochemical, P. aeruginosa. To be noted: for k−2: rate constant for breakdown of E*I; for k2: rate constant for formation of E*I. From the text: (§3) Analysis of BTZ inhibition kinetics. Models involving one, or two-step slow binding were considered to analyze BTZ inhibition of NFC hydrolysis by VIM-2 and VIM-24 (Scheme 1).
(§4) Here E represents the free enzyme, and I the free inhibitor, EI is the final enzyme-inhibitor complex for a single step slow binding mechanism, and E*I is the enzyme-inhibitor complex formed after conformational changes in a two-step slow binding mechanism. Therefore, the dissociation constant for the EI complex (Ki), also called the inhibitor constant, is defined as Ki=k−1/k1; the dissociation constant for the E*I complex (Ki′) is defined as Ki′=k−2/k2, and the overall dissociation constant for the two-step mechanism (Ki*) is defined as Ki*=Ki/(1+([…])).
(§5) The Ki for each inhibitor was determined by direct competition assays under steady-state conditions. The initial velocity was measured in the presence of a constant concentration of enzyme (3 nM for VIM-2 and 4 nM for VIM-24) with increasing concentrations of inhibitor (5-60 μM) against a fixed concentration (5 x KM) of the indicator substrate, NCF, as previously described (42-44). The reactions were started by addition of VIM-2 or VIM-24 to substrate or to mixtures of substrate and inhibitor. Data were linearized by plotting inverse initial steady-state velocities (1/v0) against inhibitor concentration (I). Ki (observed) was determined by dividing the value for the y intercept by the slope of the line. Ki determinations were corrected to account for the affinity of NCF for the β-lactamase according to equation 3.
(§6) Measurements of association rate constants for inhibitor binding were carried out at 25° C. in 10 mM HEPES at pH 7.5 supplemented with 200 mM NaCl, 50 μM […] and 50 μg/ml BSA, in the presence of several concentrations of each compound. Reactions were then initiated by the addition of β-lactamase (3 nM VIM-2 or 4 nM VIM-24) to a mixture of 50 μM NCF and each BTZ without pre-incubation. Inhibitor association rate constants were estimated from linear extrapolation of the observed rate constant for inhibition (kobs), which was obtained by fitting progress curves of NFC hydrolysis to Eq. 4:
(§7) As previously described, the linear dependence of kobs vs. [I] at limiting I concentration approximates second-order rate constant k2/Ki. The observed second-order rate constant also includes an adjustment for competition between inhibitor and substrate binding (Eq. 5).
(§8) Also, vs calculated from the progress curves of NCF hydrolysis for each concentration of inhibitor were used to determine Ki*, according to the relationship shown in equation 6 (5). The value reported is the mean of three velocities±SD.
(§9) To further test the time-dependent inhibition mechanism of inhibitor binding, assays using dilutions of pre-formed complexes were performed. For these experiments, 1 μM of enzyme was incubated with varying concentrations of the inhibitor which allowed for complete inactivation of the enzyme during the 5 min incubation at 25° C. The reactions were then diluted 2,000-fold in 10 mM HEPES at pH 7.5 supplemented with 200 mM NaCl, 50 μM […] and 50 μg/ml BSA, which contained 50 μM NCF. Reactivation of the enzyme based on NCF hydrolysis was monitored over time. Control reaction with the free enzyme was performed in the same fashion.

Another series concerns the target T2, VIM-24 (Escherichia coli, UniProt Q5U7L7, R205L).
T2 construct: which corresponds to cleavage after residues 20 (plus an additional Met residue on the N-terminus); made in house; host or cells: E. coli BL21(DE3) pLys, plasmid pET-24a(+)-blaVIM-24-S21
Kind of series: BTZ inhibition kinetics of nitrocefin hydrolysis by VIM-24. It counts as biochemical. To be noted: for k−2: rate constant for breakdown of E*I; for k2: rate constant for formation of E*I.
Text: as §3, §4, §5, §6, §7, §8, §9

The test system of the next series is E. coli pBC SK(−). Nature of the series: MIC by agar dilution, E. coli DH10B host with empty phagemid. It counts as cell-based. To be noted: Escherichia coli, MHA. How it is done:
(§10) E. coli DH10B (Invitrogen, Carlsbad, Calif.) was used as a host strain for pBCSK (−) blaVIM-2, and to obtain a mutant library at position 228 by site-saturation mutagenesis, using the QuickChange XL Site-directed Mutagenesis Kit (Stratagene). Briefly, primers that capture all 19 variants at MBL position 228 were designed and PCR mutagenic reactions were conducted using pBCSK (−) blaVIM-2 as a template, and transformed into E. coli DH10B. Single colonies were selected for plasmid purification, and successful mutagenesis was verified by complete DNA sequencing.
(§11) The effect of Zn^2+ availability was also tested by agar dilution using MH supplemented with 250 μM ZnSO4 or 5 μM EDTA. Reported values are the mode of at least 3 biological replicates.
A general note: Agar dilution tests growth on a series of plates holding different concentrations.

Series [4] deals with E. coli DH10B pBCSK(−) producing R228K variant. Nature of the series: MIC by agar dilution, E. coli DH10B producing VIM-2 R228K. The note with it: Escherichia coli, MHA. It counts as cell-based. Here is the method: as §10, §11
Series [5] deals with E. coli DH10B pBCSK(−) producing VIM-2 (228R). Nature of the series: MIC by agar dilution, E. coli DH10B producing VIM-2. It counts as cell-based. The note with it: Escherichia coli, MHA, read-out: MIC.
Text: A forward primer containing the SacI restriction site and a reverse primer with the BamHI restriction site were used to amplify blaVIM-2 including the pET24a(+) ribosomal binding site, using plasmid pET-24a(+)-blaVIM-2 as template. The product was then subcloned into phagemid pBCSK (−) (Agilent (Santa Clara, Calif.)) using the above restriction sites, and thus placing the blaVIM-2 open reading frame under control of the lac promoter, to yield phagemid pBCSK (−) blaVIM-2.
as §10, §11

The subject of series [6] is E. coli DH10B pBCSK(−) producing R228P variant. Kind of series: MIC by agar dilution, E. coli DH10B producing VIM-2 R228P. It counts as cell-based. The note with it: Escherichia coli, MHA. Here is the method:
as §10, §11

Series [7] concerns E. coli DH10B pBCSK(−) producing VIM-24 (R228L). Kind of series: MIC by agar dilution, E. coli DH10B producing VIM-24. It counts as cell-based. To be noted: Escherichia coli, MHA, read-out: MIC. Here is the method: as §10, §11
For series [8], the system named is E. coli DH10B pBCSK(−) producing R228Y variant. Nature of the series: MIC by agar dilution, E. coli DH10B producing VIM-2 R228Y. It counts as cell-based. To be noted: Escherichia coli, MHA. Here is the method: as §10, §11
Series [9] has as its system E. coli DH10B pBCSK(−) producing R228Q variant. Kind of series: MIC by agar dilution, E. coli DH10B producing VIM-2 R228Q. The note with it: Escherichia coli, MHA. It counts as cell-based. How it is done:
as §10, §11

Series [10] deals with E. coli DH10B pBCSK(−) producing R228M variant. Nature of the series: MIC by agar dilution, E. coli DH10B producing VIM-2 R228M. It counts as cell-based. The note with it: Escherichia coli, MHA. Here is the method: as §10, §11
The mark [11] stands for this setting: initial complex EI, NCF as reporter substrate.
Setting [12] is: overall dissociation constant of two-step mechanism (E*I).

In brackets after ≈: the same amount, converted by molar mass.

In the case of VIM-2 (Pseudomonas aeruginosa), in series [1], the Michaelis-Menten constant (Km) is 17 ± 2 µM, the kcat is 168 ± 8 s⁻¹ and the specificity constant (kcat/Km) turned out to be 9.8e+06 M⁻¹ s⁻¹. Also, in series [2], the Km turned out to be 13 ± 1 µM, the catalytic constant (kcat) is 430 ± 20 s⁻¹ and the specificity constant (kcat/Km) was 3.3e+07 M⁻¹ s⁻¹. Further, in series [3], the Km worked out at 12 ± 1 µM, the kcat turned out to be 45 ± 1 s⁻¹ and the specificity constant (kcat/Km) was determined as 3.6e+06 M⁻¹ s⁻¹.

For `CC1(C)SC2CSC(CS)N2C1C(=O)O` [D-VC26], the results for the inhibitory constant (Ki) on VIM-2 (setting [11]) and at VIM-2 (setting [12]) were 14000 ± 1000 nM and 100 ± 30 nM, respectively. For the same compound, the “k−2” value was 0.0006 ± 4 × 10^−4 s^−1 on VIM-2 and 0.00007 ± 1 × 10^−5 s^−1 on VIM-24. Moreover, the results for the k2 at VIM-2 and on VIM-24 were 0.09 ± 4 × 10^−3 s^−1 and 0.01 ± 3 × 10^−3 s−1, respectively.

Take `CC1(C)SC2CSC(CS)N2C1C(=O)O` [L-VC26]: the Ki on VIM-2 (setting [11]) amounted to 3800 ± 200 nM; on VIM-2 (setting [12]), 250 ± 10 nM. Further, the “k−2” value at VIM-2 is listed as 0.001 ± 1 × 10^−3 s^−1. Further, the k2 was 0.02 ± 1 × 10^−3 s^−1 at VIM-2 and 0.04 ± 2 × 10^−3 s−1 at VIM-24.

For `O=C(O)[C@H]1CS[C@@H]2CS[C@@H](CS)N12` [D-CS319], the Ki amounted to 5400 ± 400 nM on VIM-2 (setting [11]) and 180 ± 20 nM at VIM-2 (setting [12]). Further, the “k−2” value at VIM-2 is recorded as 0.0003 ± 1 × 10^−4 s^−1; on VIM-24, 0.004 ± 1 × 10^−3 s^−1. For the same compound, the k2 is listed as 0.01 ± 1 × 10^−3 s^−1 at VIM-2 and 0.07 ± 4 × 10^−3 s−1 at VIM-24.

Turning to `CO/N=C(\C(=O)N[C@@H]1C(=O)N2C(C(=O)O)=C(COC(C)=O)CS[C@H]12)c1csc(N)n1` [Cefotaxime], the MIC with E. coli pBC SK(−) is 0.06 µg/mL (≈ 0.132 µM); in series [4], 1 µg/mL (≈ 2.2 µM); in series [5] it was 8 µg/mL (≈ 17.6 µM); in [6], 1 µg/mL (≈ 2.2 µM); in [7], 16 µg/mL (≈ 35.1 µM); in series [8] it was 16 µg/mL (≈ 35.1 µM). Also, the MIC in series [9] came out at 32 µg/mL (≈ 70.3 µM); in [10], 16 µg/mL (≈ 35.1 µM).

Values taken from US10251869B2, “Compositions and methods of inhibiting metallo-β-lactamases” (priority 2014, dated 2019).
